Laboratory results reported in patent US5840750A, “Discodermolide compounds” (priority 1996, dated 1998).
Like-named read-outs stand apart in the source and are kept apart here.

Assays:
[1] = system: 70Z/3 Pre-B; experiment: Constitutive proliferation of murine lymphoid 70Z/3 Pre-B cells; type: cell-based; conditions: Mus musculus; 70Z/3 Pre-B proliferation; best response
Source text: (§7) The effects of discodermolide on the inhibition of constitutive proliferation of a number of lymphoid and non-lymphoid cell lines of mouse or human origin was investigated.

[2] = system: EL-4 Thymoma; experiment: Constitutive proliferation of murine lymphoid EL-4 thymoma cells; type: cell-based; conditions: Mus musculus; EL-4 Thymoma proliferation; best response
Source text: as §7

[3] = system: Swiss 3TC; experiment: Constitutive proliferation of murine non-lymphoid Swiss 3TC cells; type: cell-based
Source text: as §7

[4] = system: BMSC 8.3; experiment: Constitutive proliferation of murine non-lymphoid BMSC 8.3 cells; type: cell-based
Source text: (§1) ^d Bone marrow stromal cells (MBSC) derived from CS7BL/6 mice.

[5] = system: BMSC 8.6; experiment: Constitutive proliferation of murine non-lymphoid BMSC 8.6 cells; type: cell-based
Source text: as §1

[6] = system: BMSC 25.4; experiment: Constitutive proliferation of murine non-lymphoid BMSC 25.4 cells; type: cell-based
Source text: as §1

[7] = system: F7 Fibroblast; experiment: Constitutive proliferation of murine non-lymphoid F7 fibroblasts; type: cell-based; conditions: Mus musculus, best response
Source text: as §7

[8] = system: murine lymphoid and non-lymphoid cell lines; experiment: Constitutive proliferation of murine lymphoid and non-lymphoid cell lines (summary); type: cell-based; conditions: Mus musculus, read-out: IC50 values, range over murine cell lines
Source text: as §7

[9] = system: human tumor cell lines; experiment: National Cancer Institute's in vitro tumor cell line panel; type: cell-based
Source text: (§2) Discodermolide was additionally evaluated for its anti-proliferative effects utilizing the National Cancer Institute's in vitro tumor cell line panel. The results of these analyses are shown in the mean graphs presented as FIGS. 1A-1K. The data are presented using known and accepted measurements of "Growth Inhibition-50" (GI50), where growth of 50% of the cells is inhibited; "Total Growth Inhibition" (TGI), where growth of all cells is inhibited, i.e., cytostasis; and "Lethal Concentration-50" (LC50), where 50% of the cells are killed.

[10] = system: NCI-H23; experiment: NCI in vitro tumor cell line panel, LC50, non-small cell lung cancer; type: cell-based; conditions: human non-small cell lung cancer (NCI-H23)
Source text: as §2

[11] = system: COLO 205; experiment: NCI in vitro tumor cell line panel, LC50, colon cancer; type: cell-based; conditions: human colon cancer (COLO 205)
Source text: as §2

[12] = system: HCC-2998; experiment: as above; type: cell-based; conditions: human colon cancer (HCC-2998)
Source text: as §2

[13] = system: M14; experiment: NCI in vitro tumor cell line panel, LC50, melanoma; type: cell-based; conditions: human melanoma (M14)
Source text: as §2

[14] = system: SF 295; experiment: NCI in vitro tumor cell line panel, LC50, CNS cancer; type: cell-based, human
Source text: as §2

[15] = system: SF 539; experiment: as above; type: cell-based, human
Source text: as §2

[16] = system: MDA-MB-435; experiment: NCI in vitro tumor cell line panel, LC50, breast cancer; type: cell-based, human
Source text: as §2

[17] = system: MDA-N; experiment: as above; type: cell-based, human
Source text: as §2

[18] = system: GI-101A human breast cells; experiment: Cell cycle analysis of GI-101A human breast cells; type: cell-based; conditions: 24 hours; for effect on cell cycle progression: GI-101A; for percentage of cells in G2 /M / percentage of S phase cells / percentage of cells in G1 phase: discodermolide 100 ng/ml; for percentage of cells in G2 /M: control 14%; for percentage of S phase cells: control 30%; for percentage of cells in G1 phase: control 56%
Description: (§3) Cell cycle studies were initiated in order to pinpoint a specific phase within the cell cycle in which discodermolide was exerting its antiproliferative effect. GI-101A human breast and A549 human lung cells were used as cell cycle targets to compare the effects of discodermolide and taxol on perturbation of the cell cycle. Cell cycle analyses were performed as follows: GI-101A and A549 cells were incubated at 37° C. in 10% CO2 in air in the presence or absence of varying concentrations of discodermolide or taxol (purchased from Molecular Probes, Eugene, Oreg.) for 48 hours. Cells were harvested, fixed in ethanol, and stained with 0.5 mg/ml of propidium iodide (P.I.) together with 0.1 mg/ml of RNase A. This procedure permeabilizes live cells and allows entry of P.I. to stain DNA. Stained preparations were analyzed on a Coulter EPICS ELITE with 488 nm excitation with the dead cells excluded by back-gating of P.I. preparations without detergent on forward and side scatter histograms. Fluorescence measurements and resulting DNA histograms were collected from at least 5,000 P.I. stained cells at an emission wavelength of 690 nm. Raw histogram data were further analyzed using a cell cycle analysis program (Multicycle, Phoenix Flow Systems).
Approximately 56% of the control cells comprise the G1 phase of the cell cycle, and 30% comprise the S phase. Only approximately 14% of cells are demonstrable in the G2 /M phase in asynchronous cultures at any one time mainly due to their high proliferative rate (FIG. 2A). At 24 hours post culture initiation with 100 ng/ml of discodermolide, the percentage of cells in G1 phase decreased to 22%. […] The percentage of cells in G1 decreased from 56% in the control to 27% in taxol-treated cultures.

[19] = system: A549 human lung cells; experiment: Cell cycle analysis of A549 human lung cells; type: cell-based; conditions: 48 hours; for percentage of S phase cells (in words): control 19%; for percentage of cells in G2 /M / percentage of cells in G1: discodermolide 100 ng/ml; for percentage of cells in G2 /M: control 4%; for percentage of cells in G1: control 77%
Description: as §3
Discodermolide and taxol were compared for their effects on the proliferation of A549 human lung cells. Cell cultures were similarly initiated in the presence and absence of various concentrations of discodermolide or taxol and incubated at 37° C. in 10% CO2 in air for 48 hours. Cells were harvested and stained and analyzed on the flow cytometer as outlined above.

[20] = system: Jurkat human leukemia cells; experiment: Cell cycle analysis of Jurkat human leukemia cells; type: cell-based; conditions: 48 hours, discodermolide 100 ng/ml; for percentage of cells in G2 /M: control 7%; for percentage of S-phase cells: control 25%; for percentage of cells in G1: control 68%
Description: Discodermolide and taxol were compared for their effects on the proliferation of Jurkat human leukemia cells. Cell cultures were similarly initiated in the presence and absence of various concentrations of discodermolide or taxol and incubated at 37° C. in 10% CO2 in air for 48 hours. Cells were harvested and stained and analyzed on a flow cytometer using standard procedures. […] The percentage of S-phase cells in both groups increased from 25% in the control to 38% in both discodermolide- and taxol-treated cells.

[21] = system: MCF-7 cells and MDA-MB-231 cells; experiment: Growth of human breast carcinoma cells; type: cell-based; conditions: Breast carcinoma cell, results similar for both lines (MCF-7, MDA-MB-231)
Description: (§4) The effect of discodermolide on two human breast carcinoma cell lines, estrogen receptor positive MCF-7 cells, and estrogen receptor negative MDA-MB-231 cells, was determined. The results were compared with those obtained by treatment with taxol. Both lines were examined for drug effects on growth and by indirect immunofluorescence for effects on the microtubule cytoskeleton. The results were similar for both lines. […] These patterns appeared at concentrations as low as 10 nm.

[22] = system: microtubule cytoskeleton in MCF-7 cells and MDA-MB-231 cells; experiment: Indirect immunofluorescence for effects on the microtubule cytoskeleton of human breast carcinoma cells; type: cell-based; conditions: for minimal effective concentration: Homo sapiens, Breast carcinoma cell
Description: as §4

[23] = system: bovine brain tubulin; experiment: Tubulin polymerization monitored turbidimetrically; type: biochemical; conditions: for temperature at which tubulin polymerization/assembly began: 10 μM tubulin, MAPs, GTP, control 37° C.; for stability of assembly upon return of the mixture to 0° C.: control disassembled
Description: (§5) Discodermolide was analyzed for its interactions with tubulin. Tubulin polymerization was monitored turbidimetrically at 350 nm with an electronic temperature controller. Reaction mixtures contained 0.1M 4-morpholine-ethanesulfonate (pH 6.9), 1.0 mg/ml (10 μM) electrophoretically-homogenous bovine brain tubulin freed of unbound nucleotide by gel filtration, 0.5 mg/ml heat-treated MAPs, 100 μM GTP, and 4% (v/v) dimethylsulfoxide. A concentration of 10 μM of discodermolide (curve 3) was compared with the same concentration of taxol (curve 2) and no drug (curve 1), as shown in FIG. 5.

[24] = system: tubulin; experiment: Assembly of tubulin without MAPs or GTP; type: biochemical
Description: as §5, with “[…],” for “0.5 mg/ml heat-treated MAPs, 100 μM GTP,”

[25] = system: tubulin; experiment: EC50 for the polymerization of tubulin; type: biochemical; conditions: additional studies
Description: as §5

[26] = system: tubulin; experiment: Electron micrographs of polymers of tubulin; type: biochemical; conditions: compared with control
[27] = Constitutive proliferation of human non-lymphoid normal (foreskin) fibroblasts; conditions: human, foreskin fibroblasts
[28] = system: Normal Fibroblast; experiment: as above
[29] = system: microtubules; conditions: literature; cited from earlier work
[30] = system: cancers; conditions: clinical trials; cited from earlier work
[31] = system: P388; experiment: P388 IC50 (biological activity of octahydrodiscodermolide compounds); type: cell-based
Description: (§6) The octahydrodiscodermolide compounds were tested for biological activity and the following results obtained: […]

[32] = system: A549; experiment: A549 IC50 (biological activity of octahydrodiscodermolide compounds); type: cell-based, human
Description: as §6

Molecule: C=C/C=C\C(C)C(OC(N)=O)C(C)C(O)C(C)C/C(C)=C\C(C)C(O)C(C)/C=C\C(O)CC1OC(=O)C(C)C(O)C1C (single isomer, unassigned) [discodermolide]
- IC50 [1]: 3 nM
- IC50 [2]: 30 nM
- IC50 ([3]; Mus musculus, Swiss 3TC proliferation, best response): 37 nM
- IC50 ([4]; Mus musculus, BMSC 8.3 proliferation, best response): 50 nM
- IC50 ([5]; Mus musculus, BMSC 8.6 proliferation, best response): 84 nM
- IC50 ([6]; Mus musculus, BMSC 25.4 proliferation, best response): 59 nM
- IC50 [7]: 60 nM
- IC50 [8]: 3 to 60 nM
- selective cytotoxicity, number of cell lines for GI50 ([9]; approximately 60 cell lines tested, GI50): 32 cell lines
- selective cytotoxicity, number of cell lines for TGI ([9]; approximately 60 cell lines tested, TGI): 18 cell lines
- cytotoxicity pattern (COMPARE algorithm) ([9]; statistical analysis of selective toxicity pattern): matched that of several previously tested microtubule interactive agents, including the pattern generated by taxol
- LC50 (in words) [10]: particularly effective
- LC50 (in words) [11]: particularly effective
- LC50 (in words) [12]: particularly effective
- LC50 (in words) [13]: particularly effective
- LC50 (in words) [14]: particularly effective
- LC50 (in words) [15]: particularly effective
- LC50 (in words) [16]: particularly effective
- LC50 (in words) [17]: particularly effective
- effect on cell cycle progression [18]: block at G2 /M phase of the cell cycle
- percentage of cells in G2 /M [18]: 38%
- percentage of S phase cells [18]: 41%
- percentage of cells in G1 phase [18]: 22%
- percentage of S phase cells (in words) [19]: did not change significantly
- percentage of cells in G2 /M [19]: 67%
- percentage of cells in G1 [19]: 18%
- percentage of cells in G2 /M [20]: 27%
- percentage of S-phase cells [20]: 38%
- percentage of cells in G1 [20]: 35%
- IC50 [21]: 2.4 nM
- minimal effective concentration ([22]; read-out: concentration at which immunofluorescence patterns appeared): 0.01 µM
- Immunofluorescence patterns ([22]; cellular microtubules): remarkable rearrangement of cellular microtubules
- extent of tubulin polymerization at 0° C. ([23]; 10 μM drug, 0° C.): almost complete
- temperature at which tubulin polymerization/assembly began ([23]; 10 μM drug): 0 °C
- stability of assembly upon return of the mixture to 0° C. ([23]; 10 μM drug): remained stable
- mechanism of action in regard to stabilization of microtubules ([23]; compared to taxol): superior to that of taxol
- assembly of tubulin without MAPs or GTP [24]: induced the assembly of tubulin
- assembly reactions compared to taxol ([24]; especially at low temperatures): more dramatic compared to those observed with taxol
- EC50 [25]: 2700 nM
- electron micrographs of polymers of tubulin [26]: very similar characteristics, presence of polymers, microtubules, and sheets
- CC50 [27]: > 3000 nM
- IC50 ([28]; Homo sapiens, Fibroblast): 15 nM
- viable cell recovery (toxicity) ([28]; human foreskin fibroblast, concentrations up to 3.0 μM): not affected

Molecule: CC(=O)O[C@H]1C(=O)[C@@]2(C)[C@H]([C@H](OC(=O)c3ccccc3)[C@]3(O)C[C@H](OC(=O)[C@H](O)[C@@H](NC(=O)c4ccccc4)c4ccccc4)C(C)=C1C3(C)C)[C@]1(OC(C)=O)CO[C@@H]1C[C@@H]2O [taxol, reference compound]
- effect on cell cycle progression [18]: block at G2 /M
- percentage of cells in G2 /M [18]: 37%
- percentage of S phase cells [18]: 37%
- percentage of cells in G1 phase [18]: 27%
- percentage of S phase cells (in words) [19]: did not change significantly
- percentage of cells in G2 /M [19]: 77%
- percentage of cells in G1 [19]: 11%
- percentage of cells in G2 /M [20]: 28%
- percentage of S-phase cells [20]: 38%
- percentage of cells in G1 [20]: 34%
- IC50 [21]: 2.1 nM
- minimal effective concentration ([22]; only at much higher drug concentrations, read-out: concentration at which immunofluorescence changes occurred): 1 µM
- temperature at which tubulin polymerization/assembly began ([23]; 10 μM drug): 10 °C
- stability of assembly upon return of the mixture to 0° C. ([23]; 10 μM drug): modest decline
- EC50 [25]: 23000 nM
- electron micrographs of polymers of tubulin [26]: very similar characteristics, presence of polymers, microtubules, and sheets; however, the taxol-inducedpolymers were somewhat longer than those induced with discodermolide
- effect on microtubules [29]: stabilizes microtubules and inhibits their depolymerization to free tubulin
- clinical effect [30]: effective in the treatment of a wide range of cancers

Molecule: Cyclosporin A [reference compound]
- inhibition (Cyclosporin A) ([3]; 3T3, up to 1 μg/ml): no
- inhibition (Cyclosporin A) ([4]; BMSC lines, up to 1 μg/ml): no
- inhibition (Cyclosporin A) ([5]; BMSC lines, up to 1 μg/ml): no
- inhibition (Cyclosporin A) ([6]; BMSC lines, up to 1 μg/ml): no
- inhibition (Cyclosporin A) ([28]; human fibroblasts, up to 3 μM): no

Molecule: octahydrodiscodermolide [20SG721]
- IC50 [31]: 0.02 µg/mL
- IC50 [32]: 0.008 µg/mL

Molecule: octahydrodiscodermolide [20SG724]
- IC50 [31]: 3.56 µg/mL
- IC50 [32]: > 5 µg/mL
